Converted amounts (≈) assume the structure as drawn.
Tests used:
Assay type in all cases: cell-based
[1] = tested on: Zygosaccharomyces bailli SUN07; assay: Antimicrobial activity (MIC), Zygosaccharomyces bailli SUN07; settings: potato dextrose broth pH 3.8, visual evaluation; for MIC: read-out: Minimal Inhibitory Concentration (MIC)
Asaia siamensis SUN03 = assay: Antimicrobial activity (MIC), Asaia siamensis SUN03; settings: potato dextrose broth pH 3.8, visual evaluation
[2] = tested on: Neosartorya fischeri SUN09; assay: Antimicrobial activity (MIC), Neosartorya fischeri SUN09; settings: potato dextrose broth pH 3.8, visual evaluation; for MIC: Aspergillus fischeri, read-out: Minimal Inhibitory Concentration (MIC)
[3] = tested on: Saccharomyces cerevisiae SUN06; assay: Antimicrobial activity (MIC), Saccharomyces cerevisiae SUN06; settings: potato dextrose broth pH 3.8, visual evaluation; for MIC: read-out: Minimal Inhibitory Concentration (MIC)
Brettanomyces sp SUN08 = assay: Antimicrobial activity (MIC), Brettanomyces sp SUN08; settings: potato dextrose broth pH 3.8, visual evaluation; for MIC: read-out: Minimal Inhibitory Concentration (MIC)
Penicillium paneum SUN04 = assay: Antimicrobial activity (MIC), Penicillium paneum SUN04; settings: potato dextrose broth pH 3.8, visual evaluation; for MIC: read-out: Minimal Inhibitory Concentration (MIC)
[4] = tested on: Zygosaccharomyces bailli SUN02; assay: Antimicrobial activity (MIC), Zygosaccharomyces bailli SUN02; settings: potato dextrose broth pH 3.8, visual evaluation; for MIC: read-out: Minimal Inhibitory Concentration (MIC)
Byssochlamys nivea SUN10 = assay: Antimicrobial activity (MIC), Byssochlamys nivea SUN10; settings: potato dextrose broth pH 3.8, visual evaluation; for MIC: Paecilomyces niveus, read-out: Minimal Inhibitory Concentration (MIC)
[5] = tested on: Saccharomyces cerevisiae SUN01; assay: Antimicrobial activity (MIC), Saccharomyces cerevisiae SUN01; settings: potato dextrose broth pH 3.8, visual evaluation; for MIC: read-out: Minimal Inhibitory Concentration (MIC)
[6] = tested on: Candida parapsilosis SUN05; assay: Antimicrobial activity (MIC), Candida parapsilosis SUN05; settings: potato dextrose broth pH 3.8, visual evaluation; for MIC: Lodderomyces parapsilosis, read-out: Minimal Inhibitory Concentration (MIC)
[7] = tested on: Alicyclobacillus acidoterrestris DSM 2498; assay: Antimicrobial activity (MIC), Alicyclobacillus acidoterrestris DSM 2498; settings: DSM2498, potato dextrose broth pH 3.8, visual evaluation, read-out: Minimal Inhibitory Concentration (MIC)

Row | Compound | MIC [1] [µg/mL] | MIC [2] [µg/mL] | MIC [3] [µg/mL] | MIC (Penicillium paneum SUN04) [µg/mL] | MIC [4] [µg/mL] | MIC (Byssochlamys nivea SUN10) [µg/mL] | MIC [5] [µg/mL] | Minimal Inhibitory Concentration (MIC) (Asaia siamensis SUN03) | Minimal Inhibitory Concentration (MIC) [2] | Minimal Inhibitory Concentration (MIC) (Brettanomyces sp SUN08) | Minimal Inhibitory Concentration (MIC) (Penicillium paneum SUN04) | Minimal Inhibitory Concentration (MIC) [5] | Minimal Inhibitory Concentration (MIC) [6] | Minimal Inhibitory Concentration (MIC) [3] | Minimal Inhibitory Concentration (MIC) [4] | Minimal Inhibitory Concentration (MIC) (Byssochlamys nivea SUN10) | further results
1 | CCCCCCCC(=O)O[C@H]1[C@H](O[C@H]2[C@H](O)[C@@H](O)[C@H](OCC(O)CCCCCCCCCCCCC(O)C(=O)O)O[C@@H]2COC(C)=O)O[C@H](CO)[C@@H](O)[C@@H]1O (some centres unmarked) [NP-018753] | ≤ 31.2 | ≤ 31.2 | ≤ 31.2 | 500 (≈ 627 µM) | ≤ 31.2 | ≤ 31.2 | ≤ 31.2 | – | – | – | – | – | – | – | – | – | MIC (Asaia siamensis SUN03; read-out: Minimal Inhibitory Concentration (MIC)): > 500 µg/mL; MIC (Brettanomyces sp SUN08): 500 µg/mL (≈ 627 µM); MIC [6]: ≤ 31.2 µg/mL
2 | CCCCCC(O)CC(=O)O[C@H]1[C@H](O[C@H]2[C@H](O)[C@@H](O)[C@H](OCC(O)CCCCCCCCCCCCCC(=O)O)O[C@@H]2COC(C)=O)O[C@H](CO)[C@@H](O)[C@@H]1O (some centres unmarked) [NP-018752] | 500 (≈ 627 µM) | – | 500 (≈ 627 µM) | – | 500 (≈ 627 µM) | 500 (≈ 627 µM) | – | inact. | inact. | inact. | inact. | inact. | inact. | – | – | – | MIC [7]: 4 µg/mL (≈ 5.02 µM)
3 | O=C(O)CC(O)CCCCCCCCCCCC(O)CO[C@@H]1O[C@H](COC(=O)O)[C@@H](O[C@@H]2O[C@H](CO)[C@@H](O)[C@H](O)[C@H]2O)[C@H](O)[C@H]1O (some centres unmarked) [NP-018428] | – | 500 (≈ 743 µM) | – | – | – | – | – | inact. | – | inact. | inact. | inact. | inact. | inact. | inact. | inact. | Minimal Inhibitory Concentration (MIC) [1]: inact.
4 | CCCC(O)CC(=O)OC[C@H]1O[C@@H](O[C@H]2[C@H](O)[C@@H](O)[C@H](OCC(O)CCCCCCCCCCCCC(O)C(=O)O)O[C@@H]2COC(C)=O)[C@H](O)[C@@H](O)[C@@H]1O (some centres unmarked) [NP-018459] | 500 (≈ 637 µM) | 500 (≈ 637 µM) | – | 500 (≈ 637 µM) | – | – | – | inact. | – | inact. | – | inact. | inact. | inact. | inact. | inact. | –
5 | O=C(O)OC[C@H]1O[C@@H](OCC(O)CCCCCCCCCCCCC(O)C(=O)O)[C@H](O)[C@@H](O)[C@@H]1O[C@@H]1O[C@H](CO)[C@@H](O)[C@H](O)[C@H]1O (some centres unmarked) [NP-018243] | 250 (≈ 372 µM) | ≤ 125 | 250 (≈ 372 µM) | ≤ 125 | 250 (≈ 372 µM) | 250 (≈ 372 µM) | 250 (≈ 372 µM) | inact. | – | – | – | – | – | – | – | – | MIC (Brettanomyces sp SUN08): 250 µg/mL (≈ 372 µM); MIC [6]: 500 µg/mL (≈ 743 µM)
6 | O=C(O)OC[C@H]1O[C@@H](OCC(O)CCCCCCCCCCCCC(O)C(=O)O)[C@H](O)[C@@H](O)[C@@H]1O[C@@H]1O[C@H](CO)[C@@H](O)[C@H](OC(=O)CC(O)CCO)[C@H]1O (some centres unmarked) [NP-018249] | 500 (≈ 634 µM) | – | – | – | 500 (≈ 634 µM) | – | 500 (≈ 634 µM) | inact. | inact. | inact. | inact. | – | inact. | inact. | – | inact. | –
7 | CCCCCC(O)CC(=O)O[C@@H]1[C@@H](O)[C@H](O[C@H]2[C@H](O)[C@@H](O)[C@H](OCC(O)CCCCCCCCCCCCC(O)C(=O)O)O[C@@H]2COC(C)=O)O[C@H](CO)[C@H]1O (some centres unmarked) [NP-018218] | – | – | 500 (≈ 615 µM) | – | – | – | – | inact. | inact. | inact. | inact. | inact. | inact. | – | inact. | inact. | Minimal Inhibitory Concentration (MIC) [1]: inact.
